Data on nine molecules can be found in ChEMBL document CHEMBL1201862, “PubChem BioAssay data set” (2004).

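48-hour exposure; five concentrations; linearly interpolated endpoints. GI50 = concentration required for 50% inhibition of growth.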 Calls of active or inactive are those of the source. Cut-off read from the data, not from the text of the source: active = GI50 up to about 1.1 µM and inactive = higher. Where only a bound is given, the exact number is not on record here.

Some test systems named below: HOP-92; U-251; NCI-H226; KM12; SF-268; Malme-3M; LOX IMVI; SK-MEL-28; OVCAR-5; K562; EKVX; SF-539; SK-MEL-5; SK-OV-3; MDA-MB-435; MDA-MB-231; MDA-N; MCF7; T47D.
Holding throughout (assay): NCI anticancer screen, dose series, 48 h

As to `C=CC(=O)NCNC(=O)C=C`, the GI50 with HOP-92, with U-251, in the experiment with NCI-H226, in the experiment on KM12, in the experiment on SF-268 and in the experiment with Malme-3M was > 100 µM (inactive) throughout. Moreover, the GI50 with LOX IMVI, in the experiment on SK-MEL-28, in the experiment with OVCAR-5, in the experiment with K562, in the experiment on EKVX and in the experiment on SF-539 was > 100 µM (inactive) each time. Further, the GI50 in the experiment on SK-MEL-5 and in the experiment with SK-OV-3 was > 100 µM (inactive) each time.
Consider `Cc1cc(Cl)ccc1NC(=O)C(=O)Cc1ccc([N+](=O)[O-])c([N+](=O)[O-])c1CC(=O)C(=O)Nc1ccc(Cl)cc1C`, for which the GI50 was 82 µM (inactive) in the experiment with HOP-92; > 100 µM (inactive) in the experiment with U-251; > 100 µM (inactive) in the experiment on NCI-H226; > 100 µM (inactive) in the experiment with KM12; > 100 µM (inactive) in the experiment with SF-268; > 100 µM (inactive) with Malme-3M. The GI50 is > 100 µM (inactive) in the experiment with LOX IMVI; > 100 µM (inactive) in the experiment on SK-MEL-28; > 100 µM (inactive) in the experiment on OVCAR-5; > 100 µM (inactive) in the experiment with K562; > 100 µM (inactive) in the experiment with EKVX; 35 µM (inactive) in the experiment with SF-539. Besides, the GI50 in the experiment with SK-MEL-5 and with SK-OV-3 was > 100 µM (inactive) in each case.
With `CSc1cc(Cl)c(C)cc1S(=O)(=O)NC(=O)NNc1ccc(F)c(Cl)c1`, the GI50 in the experiment on MDA-MB-435, in the experiment with MDA-MB-231, in the experiment with U-251, in the experiment on NCI-H226, in the experiment with KM12 and in the experiment on SF-268 was > 100 µM (inactive) each time. Also, the GI50 with MDA-N, in the experiment with Malme-3M, in the experiment on LOX IMVI, with SK-MEL-28, in the experiment with MCF7 and with OVCAR-5 was > 100 µM (inactive) in each case. Also, the GI50 in the experiment with K562, with EKVX, with T47D, in the experiment on SF-539, with SK-MEL-5 and with SK-OV-3 was > 100 µM (inactive) throughout.
For `CN(C)c1ccc(/C(Br)=C2\OC(=O)c3ccccc32)cc1`, the GI50 was 36.1 µM (inactive) in the experiment with MDA-MB-435; > 100 µM (inactive) with MDA-MB-231; > 100 µM (inactive) with U-251; 24.4 µM (inactive) in the experiment on NCI-H226; 39.2 µM (inactive) in the experiment with KM12; > 100 µM (inactive) in the experiment on SF-268. For the same molecule, the GI50 is 40.1 µM (inactive) with MDA-N; 67.1 µM (inactive) in the experiment with Malme-3M; > 100 µM (inactive) in the experiment with LOX IMVI; > 100 µM (inactive) in the experiment on SK-MEL-28; 0.759 µM (active) in the experiment on MCF7; 2.95 µM (inactive) with OVCAR-5. Further, the GI50 in the experiment with K562 was 59.6 µM (inactive); in the experiment with EKVX it was > 100 µM (inactive); with T47D it was 11.3 µM (inactive); in the experiment with SF-539 it was > 100 µM (inactive); in the experiment on SK-MEL-5, 77.6 µM (inactive); in the experiment with SK-OV-3, > 100 µM (inactive).
For the molecule `CSc1cnc2ccccc2c1Sc1cn(C)c2ccccc2c1=O`, the GI50 with HOP-92 is 12 µM (inactive); in the experiment on U-251 it was 7.14 µM (inactive); in the experiment with NCI-H226, 26.1 µM (inactive); in the experiment with KM12 it was 25.8 µM (inactive); in the experiment with SF-268 it was 9.14 µM (inactive); in the experiment on Malme-3M, > 100 µM (inactive). Also, the GI50 in the experiment on LOX IMVI was 14.6 µM (inactive); in the experiment on SK-MEL-28, 27.9 µM (inactive); in the experiment with OVCAR-5, > 100 µM (inactive); in the experiment with K562, 7.82 µM (inactive); with EKVX, 29.3 µM (inactive); in the experiment on SF-539, 29 µM (inactive). Besides, the GI50 is 24.4 µM (inactive) in the experiment on SK-MEL-5 and 17.6 µM (inactive) with SK-OV-3.
As to `CCCCCCCCCCCCC(=O)OC(c1cnco1)c1nc(C(O)CC(O)C(O)C(C)O)co1` (configuration not stated), the GI50 is 1.34 µM (inactive) in the experiment with HOP-92; 1.89 µM (inactive) with MDA-MB-231; 0.129 µM (active) in the experiment with U-251; 9.18 µM (inactive) with NCI-H226; 0.766 µM (active) in the experiment with KM12; 0.333 µM (active) with SF-268. The GI50 was 1.95 µM (inactive) in the experiment on MDA-N; 0.828 µM (active) with Malme-3M; 0.144 µM (active) with LOX IMVI; 0.5 µM (active) in the experiment on SK-MEL-28; 0.454 µM (active) in the experiment with MCF7; 11.6 µM (inactive) in the experiment on OVCAR-5. In addition, the GI50 with K562 is 0.21 µM (active); in the experiment on EKVX, 11.8 µM (inactive); with T47D, 4.71 µM (inactive); in the experiment with SF-539, 0.942 µM (active); in the experiment on SK-MEL-5, 0.719 µM (active); in the experiment on SK-OV-3 it was 3.94 µM (inactive).
Turning to `O=C1CSc2nc3ccccc3n2/C=N\N1`, the GI50 with MDA-MB-435, in the experiment with HOP-92, with MDA-MB-231, with U-251, in the experiment with NCI-H226 and with KM12 was > 100 µM (inactive) throughout. The GI50 in the experiment on SF-268, in the experiment on MDA-N, in the experiment with LOX IMVI, in the experiment on SK-MEL-28, in the experiment on MCF7 and in the experiment on OVCAR-5 was > 100 µM (inactive) in each case. The GI50 in the experiment with K562, in the experiment on SK-MEL-5 and in the experiment on SK-OV-3 was > 100 µM (inactive) each time.
On to `Cc1ccc(NC(=O)c2cc3ccccc3c(/N=N\c3ccccc3O)c2O)c(C)c1`, for which the GI50 with HOP-92 is 2.95 µM (inactive); in the experiment on MDA-MB-231 it was 2 µM (inactive); in the experiment on NCI-H226 it was 2.82 µM (inactive); in the experiment with KM12, 1.45 µM (inactive); in the experiment with SF-268, 0.687 µM (active); with Malme-3M, 0.809 µM (active). For the same molecule, the GI50 with SK-MEL-28 is 5.09 µM (inactive); in the experiment with MCF7 it was 2.16 µM (inactive); with OVCAR-5 it was 3.1 µM (inactive); in the experiment on K562 it was 3.09 µM (inactive); in the experiment on EKVX it was 2.75 µM (inactive); in the experiment with SK-MEL-5 it was 1.03 µM (active). For the same molecule, the GI50 in the experiment with SK-OV-3 was 1.86 µM (inactive).
Consider `O=C(c1cccs1)c1nccc2c1cnc1ccccc12`, for which the GI50 was > 100 µM (inactive) with MDA-MB-435; 36.6 µM (inactive) with HOP-92; > 100 µM (inactive) in the experiment on MDA-MB-231; 41.2 µM (inactive) in the experiment on U-251; > 100 µM (inactive) with NCI-H226; > 100 µM (inactive) in the experiment with KM12. The GI50 in the experiment with SF-268 is 26.2 µM (inactive); in the experiment with Malme-3M, > 100 µM (inactive); with LOX IMVI it was > 100 µM (inactive); in the experiment on SK-MEL-28, > 100 µM (inactive); in the experiment on MCF7 it was 20.3 µM (inactive); in the experiment on OVCAR-5 it was > 100 µM (inactive). Further, the GI50 in the experiment on K562, with EKVX, in the experiment on T47D, in the experiment on SF-539, in the experiment with SK-MEL-5 and in the experiment with SK-OV-3 was > 100 µM (inactive) in each case.
